Earlier results in PubChem BioAssay AID1259409 (Chemical Carcinogenesis Research Information System (CCRIS), 2018).

System: rodent chemically induced tumor inhibition, incidence and multiplicity
Test: CCRIS tumor inhibitor studies

SMILES: COc1cc(/C=C/C(=O)CC(=O)/C=C/c2ccc(O)c(OC)c2)ccc1O
- tumour outcome (control, treated, inhibition, significance) (Carcinogen: 7,12-DIMETHYLBENZ[A]ANTHRACENE, 57-97-6, Dose [Inhibitor]: 10 UMOL IN MINERAL OIL APPLIED TO BUCCAL POUCH 3/WK BEGINNING 2 D AFTER LAST CARCINOGEN DOSE (STUDY DURATION: 24 WK), Route [Inhibitor]: MUCOUS MEMBRANE, Species: HAMSTER, Strain/Sex: SYRIAN/MALE, Target Tissue: Type of Lesion: BUCCAL POUCH: PAPILLOMA, Dose [Carcinogen]: 0.5% IN MINERAL OIL APPLIED TO BUCCAL POUCH 3'/WK FOR 6 WK, Promoter: NONE USED): 21/26 (80.7%), 20/26 (76.9%), 4.71%, not significant
- tumour outcome (control, treated, inhibition, significance) (Carcinogen: 7,12-DIMETHYLBENZ[A]ANTHRACENE, 57-97-6, Dose [Inhibitor]: 10 UMOL IN MINERAL OIL APPLIED TO BUCCAL POUCH 3/WK BEGINNING 2 D AFTER LAST CARCINOGEN DOSE (STUDY DURATION: 24 WK), Route [Inhibitor]: MUCOUS MEMBRANE, Species: HAMSTER, Strain/Sex: SYRIAN/MALE, Target Tissue: Type of Lesion: BUCCAL POUCH: SQUAMOUS CELL CARCINOMA, Dose [Carcinogen]: 0.5% IN MINERAL OIL APPLIED TO BUCCAL POUCH 3'/WK FOR 6 WK, Promoter: NONE USED): 20/26 (76.9%), 13/26 (50%), 35%, p< 0.05
- tumour outcome (control, treated, inhibition, significance) (Carcinogen: 7,12-DIMETHYLBENZ[A]ANTHRACENE, 57-97-6, Dose [Inhibitor]: 10 UMOL IN MINERAL OIL APPLIED TO BUCCAL POUCH 3/WK BEGINNING 2 D AFTER LAST CARCINOGEN DOSE (STUDY DURATION: 24 WK), Route [Inhibitor]: MUCOUS MEMBRANE, Species: HAMSTER, Strain/Sex: SYRIAN/MALE, Target Tissue: Type of Lesion: BUCCAL POUCH: TUMOR, Dose [Carcinogen]: 0.5% IN MINERAL OIL APPLIED TO BUCCAL POUCH 3'/WK FOR 6 WK, Promoter: NONE USED): 24/26 (92.3%), 20/26 (76.9%), 16.7%, not significant
- tumour outcome (control, treated, inhibition, significance) (Carcinogen: 7,12-Dimethylbenzanthracene, 57-97-6, Dose [Inhibitor]: 1% as turmeric (equivalent to 0.05% curcumin) in diet, starting 15 d before carcinogen application to 12 wks after carci, Route [Inhibitor]: Diet, Species: Hamster, Strain/Sex: Syrian golden/Male, Target Tissue: Type of Lesion: Buccal (oral) tissues: Tumor, Dose [Carcinogen]: 0.5% in 0.1 ml oil 3 x wk for 12 wk, study duration 12 wk, Promoter: None): 100%, 55%, 45% at 12 wks (from table)
- tumour outcome (control, treated, inhibition, significance) (Carcinogen: AZOXYMETHANE, 25843-45-2, Dose [Inhibitor]: 0, 0.5% COMMERCIAL GRADE CURCUMIN IN DIET FOR 35 WK BEGINNING 2 WK PRIOR TO CARCINOGEN TREATMENT (STUDY DURATION: 35 WK), Route [Inhibitor]: ORAL, Species: MOUSE, Strain/Sex: CF-1/FEMALE, Target Tissue: Type of Lesion: COLON: ADENOCARCINOMA, Dose [Carcinogen]: 10 MG/KG BW IN 100 µL NORMAL SALINE 1/WK FOR 6 WK, Promoter: NONE USED): 40%, 22%, 45%, not significant
- tumour outcome (control, treated, inhibition, significance) (Carcinogen: AZOXYMETHANE, 25843-45-2, Dose [Inhibitor]: 0, 0.5% COMMERCIAL GRADE CURCUMIN IN DIET FOR 35 WK BEGINNING 2 WK PRIOR TO CARCINOGEN TREATMENT (STUDY DURATION: 35 WK), Route [Inhibitor]: ORAL, Species: MOUSE, Strain/Sex: CF-1/FEMALE, Target Tissue: Type of Lesion: COLON: ADENOMA, Dose [Carcinogen]: 10 MG/KG BW IN 100 µL NORMAL SALINE 1/WK FOR 6 WK, Promoter: NONE USED): 93%, 69%, 26%, not significant
- tumour outcome (control, treated, inhibition, significance) (Carcinogen: AZOXYMETHANE, 25843-45-2, Dose [Inhibitor]: 0, 2% COMMERCIAL GRADE CURCUMIN IN DIET FOR 9 WK BEGINNING 2 WK PRIOR TO CARCINOGEN TREATMENT (STUDY DURATION: 35 WK), Route [Inhibitor]: ORAL, Species: MOUSE, Strain/Sex: CF-1/FEMALE, Target Tissue: Type of Lesion: COLON: ADENOCARCINOMA, Dose [Carcinogen]: 10 MG/KG BW IN 100 µL NORMAL SALINE 1/WK FOR 6 WK, Promoter: NONE USED): 40%, 9%, 78%, not significant
- tumour outcome (control, treated, inhibition, significance) (Carcinogen: AZOXYMETHANE, 25843-45-2, Dose [Inhibitor]: 0, 2% COMMERCIAL GRADE CURCUMIN IN DIET FOR 9 WK BEGINNING 2 WK PRIOR TO CARCINOGEN TREATMENT (STUDY DURATION: 35 WK), Route [Inhibitor]: ORAL, Species: MOUSE, Strain/Sex: CF-1/FEMALE, Target Tissue: Type of Lesion: COLON: ADENOMA, Dose [Carcinogen]: 10 MG/KG BW IN 100 µL NORMAL SALINE 1/WK FOR 6 WK, Promoter: NONE USED): 93%, 61%, 34%, not significant
- tumour outcome (control, treated, inhibition, significance) (Carcinogen: AZOXYMETHANE, 25843-45-2, Dose [Inhibitor]: 0, 2% COMMERCIAL GRADE CURCUMIN IN DIET FOR 26 WK BEGINNING 1 WK POST CARCINOGEN TREATMENT (STUDY DURATION: 35 WK), Route [Inhibitor]: ORAL, Species: MOUSE, Strain/Sex: CF-1/FEMALE, Target Tissue: Type of Lesion: COLON: ADENOCARCINOMA, Dose [Carcinogen]: 10 MG/KG BW IN 100 µL NORMAL SALINE 1/WK FOR 6 WK, Promoter: NONE USED): 40%, 24%, 40%, not significant
- tumour outcome (control, treated, inhibition, significance) (Carcinogen: AZOXYMETHANE, 25843-45-2, Dose [Inhibitor]: 0, 2% COMMERCIAL GRADE CURCUMIN IN DIET FOR 26 WK BEGINNING 1 WK POST CARCINOGEN TREATMENT (STUDY DURATION: 35 WK), Route [Inhibitor]: ORAL, Species: MOUSE, Strain/Sex: CF-1/FEMALE, Target Tissue: Type of Lesion: COLON: ADENOMA, Dose [Carcinogen]: 10 MG/KG BW IN 100 µL NORMAL SALINE 1/WK FOR 6 WK, Promoter: NONE USED): 93%, 85%, 9%, not significant
- tumour outcome (control, treated, inhibition, significance) (Carcinogen: AZOXYMETHANE, 25843-45-2, Dose [Inhibitor]: 0, 2% COMMERCIAL GRADE CURCUMIN IN DIET FOR 35 WK BEGINNING 2 WK PRIOR TO CARCINOGEN TREATMENT (STUDY DURATION: 35 WK), Route [Inhibitor]: ORAL, Species: MOUSE, Strain/Sex: CF-1/FEMALE, Target Tissue: Type of Lesion: COLON: ADENOCARCINOMA, Dose [Carcinogen]: 10 MG/KG BW IN 100 µL NORMAL SALINE 1/WK FOR 6 WK, Promoter: NONE USED): 40%, 0%, 100%, not significant
- tumour outcome (control, treated, inhibition, significance) (Carcinogen: AZOXYMETHANE, 25843-45-2, Dose [Inhibitor]: 0, 2% COMMERCIAL GRADE CURCUMIN IN DIET FOR 35 WK BEGINNING 2 WK PRIOR TO CARCINOGEN TREATMENT (STUDY DURATION: 35 WK), Route [Inhibitor]: ORAL, Species: MOUSE, Strain/Sex: CF-1/FEMALE, Target Tissue: Type of Lesion: COLON: ADENOMA, Dose [Carcinogen]: 10 MG/KG BW IN 100 µL NORMAL SALINE 1/WK FOR 6 WK, Promoter: NONE USED): 93%, 68%, 27%, not significant
- tumour outcome (control, treated, inhibition, significance) (Carcinogen: AZOXYMETHANE, 25843-45-2, Dose [Inhibitor]: 0, 2% PURE CURCUMIN IN DIET FOR 35 WK BEGINNING 2 WK PRIOR TO CARCINOGEN TREATMENT (STUDY DURATION: 35 WK), Route [Inhibitor]: ORAL, Species: MOUSE, Strain/Sex: CF-1/FEMALE, Target Tissue: Type of Lesion: COLON: ADENOCARCINOMA, Dose [Carcinogen]: 10 MG/KG BW IN 100 µL NORMAL SALINE 1/WK FOR 6 WK, Promoter: NONE USED): 40%, 14%, 65%, not significant
- tumour outcome (control, treated, inhibition, significance) (Carcinogen: AZOXYMETHANE, 25843-45-2, Dose [Inhibitor]: 0, 2% PURE CURCUMIN IN DIET FOR 35 WK BEGINNING 2 WK PRIOR TO CARCINOGEN TREATMENT (STUDY DURATION: 35 WK), Route [Inhibitor]: ORAL, Species: MOUSE, Strain/Sex: CF-1/FEMALE, Target Tissue: Type of Lesion: COLON: ADENOMA, Dose [Carcinogen]: 10 MG/KG BW IN 100 µL NORMAL SALINE 1/WK FOR 6 WK, Promoter: NONE USED): 93%, 62%, 33%, not significant
